Test results as given in US9546153B2, “Bicyclic heterocycle substituted pyridyl compounds useful as kinase modulators” (BRISTOL-MYERS SQUIBB COMPANY, priority 2012, dated 2017).
Values joined by “and” are separate entries in the source; they are usually repeats but may differ in a detail not shown here. Equal entries are not always repeated. Where two headings read alike, the source gives them in different places.

Experiments:
[1] = system: TLR2 induced IL-6 in peripheral blood mononuclear cells (PBMCs); experiment: PBMC TLR2 Induced IL-6 Assay; format: cell-based, human; conditions: human PBMCs, 10 μg/ml lipoteichoic acid for 5 hours, IL-6 by ELISA; for IC50: value without asterisk, read-out: Cell IC50; for EC50: EC50 determinations are indicated with an asterisk, read-out: Cell EC50 (asterisk)
Experimental: Peripheral blood mononuclear cells (PBMCs) were isolated from human blood containing the anti-coagulant EDTA (2.5 mM) by centrifugation over a FICOLL® gradient. PBMCs (250000 cells/well) were cultured in assay media (RPMI with 10% heat inactivated FCS) with compounds for 30 minutes at 37° C. in a 5% CO2 incubator. Following pretreatment with compounds, cells were stimulated for 5 hours with 10 μg/ml lipoteichoic acid (Invivogen, San Diego, Calif.), a TLR2 agonist. At the end of the culture, plates were centrifuged at 1800 rpm for 10 minutes to pellet the cells. Supernatants were harvested and analyzed for IL-6 levels by ELISA (BD Biosciences, San Jose, Calif.). Inhibition was calculated as either an IC50 or EC50. EC50 determinations are indicated with an asterisk.

[2] = target: IRAK4 (Homo sapiens (Human), UniProt Q9NWZ3); experiment: IRAK4 Inhibition Assay; format: biochemical; conditions: ATP 500 μM; IRAK4 0.6 nM; 60 min at room temperature
Chain of IRAK4 (Q9NWZ3 whole entry, species assumed): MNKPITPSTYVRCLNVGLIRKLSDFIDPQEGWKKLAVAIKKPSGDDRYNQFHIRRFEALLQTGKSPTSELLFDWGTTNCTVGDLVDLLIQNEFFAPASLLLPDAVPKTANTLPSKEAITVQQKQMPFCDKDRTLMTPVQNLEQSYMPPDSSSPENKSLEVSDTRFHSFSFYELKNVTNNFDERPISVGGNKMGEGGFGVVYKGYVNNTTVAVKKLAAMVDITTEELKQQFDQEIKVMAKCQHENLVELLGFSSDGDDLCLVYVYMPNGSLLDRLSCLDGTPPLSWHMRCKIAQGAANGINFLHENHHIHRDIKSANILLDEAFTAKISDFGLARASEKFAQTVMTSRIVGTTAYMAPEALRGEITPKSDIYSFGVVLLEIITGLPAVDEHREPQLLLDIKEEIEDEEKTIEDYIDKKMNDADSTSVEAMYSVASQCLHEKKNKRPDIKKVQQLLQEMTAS
Experimental: The assays were performed in U-bottom 384-well plates. […] The reaction was initiated by the combination of IRAK4 with substrates and test compounds. The reaction was incubated at room temperature for 60 min. and terminated by adding 45 μL of 35 mM EDTA to each sample. The reaction mixture was analyzed on the Caliper LABCHIP® 3000 (Caliper, Hopkinton, Mass.) by electrophoretic separation of the fluorescent substrate and phosphorylated product.

Row | SMILES | IC50 [2] | IC50 [1] [µM] | IC50 ([1]; Homo sapiens, PBMC, 5 h) [µM] | EC50 ([1]; Homo sapiens, PBMC, 5 h) [µM]
1 | CC(C)Nc1cc(Nc2ccc3ncsc3c2)ncc1C(=O)NCC[C@@H](C)NC(=O)[C@@H]1CC[C@@H](F)C1 [Example 187] | 0.0027 µM | – | 0.324 | –
2 | CC(C)NC(=O)N[C@H](C)CCNC(=O)c1cnc(Nc2ccc3ncsc3c2)cc1NC(C)C [Example 177] | 0.0017 µM | – | 0.191 | –
3 | COc1ccc(CNc2cc(Nc3ccc4ncsc4c3)ncc2C(=O)NC[C@@H](F)C(C)(C)O)cc1 [Example 168] | 0.0134 µM | – | 0.565 | –
4 | CCOC(=O)c1cn2c(n1)sc1cc(Nc3cc(NC4CCCC4)c(C(=O)NC)cn3)ccc12 [Example 3] | 0.0171 µM | – | 0.18 | –
5 | CC(C)(O)[C@H](F)CNC(=O)c1cnc(Nc2ccc3nonc3c2)cc1N[C@@H]1CCCC1F (stereo partly shown) [Example 356] | 0.003 µM | – | 0.281 | –
6 | CC(C)(O)[C@H](F)CNC(=O)c1cnc(Nc2nc3ccnn3cc2F)cc1NC1CCOCC1 [Example 369] | 0.0081 µM | – | 0.859 | –
7 | CC(C)Nc1cc(Nc2ccc3ncsc3c2)ncc1C(=O)N[C@H]1CC[C@H](C(=O)NC23CCC(O)(CC2)C3)CC1 [Example 220] | 0.0034 µM | – | 0.328 | –
8 | CC(C)Nc1cc(Nc2ccc3ncsc3c2)ncc1C(=O)NCCc1ccc(C(N)=O)cc1 [Example 11] | 0.0078 µM | – | 0.726 | –
9 | CC(C)Nc1cc(Nc2ccc3ncsc3c2)ncc1C(=O)NC1CCC(O)(c2ccnn2C)CC1 (stereo not shown) [Example 524] | 0.0037 µM | – | – | 0.075
10 | CC(C)Nc1cc(Nc2ccc3ncsc3c2)ncc1C(=O)NCC[C@@H](C)NC(=O)Cn1ccnn1 [Example 193] | 0.0031 µM | – | 0.345 | –
11 | CC(C)(O)[C@H](F)CNC(=O)c1cnc(Nc2ccc3ncsc3c2)cc1NC12CCC(NS(C)(=O)=O)(CC1)C2 [Example 396] | 0.0027 µM | – | 0.351 | –
12 | CC(C)(F)CNc1cc(Nc2ccn3nccc3n2)ncc1C(=O)NC[C@@H](F)C(C)(C)O [Example 253] | 0.0052 µM | – | 0.308 | –
13 | CC(C)(O)[C@H](F)CNC(=O)c1cnc(Nc2nc3ccnn3cc2F)cc1NC1CC2CC2C1(F)F (stereo partly shown) [Example 481] | 0.0036 µM | – | 0.223 | –
14 | CNC(=O)[C@H]1CC[C@H](NC(=O)c2cnc(Nc3ccc4ncsc4c3)cc2NC(C)C)C1 [Example 221] | 0.0105 µM | – | 0.462 | –
15 | CC(C)Nc1cc(Nc2ccc3ncsc3c2)ncc1C(=O)NC1CCCC(CO)C1 (stereo not shown) [Example 172] | 0.0067 µM | 0.3 | – | –
16 | CC(C)(O)[C@H](F)CNC(=O)c1cnc(Nc2ccc3ncccc3n2)cc1NC1CCOCC1F (stereo partly shown) [Example 438] | 0.0116 µM | 0.168 | – | –

Row | SMILES | IC50 [2] | IC50 [1] [µM] | IC50 ([1]; Homo sapiens, PBMC, 5 h) [µM] | EC50 ([1]; Homo sapiens, PBMC, 5 h) [µM]
17 | CC(C)Nc1cc(Nc2cc3nccnc3cc2F)ncc1C(=O)NC[C@@H](F)C(C)(C)O [Example 501] | 0.0045 µM | – | – | 0.209
18 | CC(C)(O)[C@H](F)CNC(=O)c1cnc(Nc2ccn3nccc3c2)cc1NC1CCC(F)C1 (stereo partly shown) [Example 287] | 0.0062 µM | – | 0.674 | –
19 | CC(C)Nc1cc(Nc2ccc3ncoc3c2)ncc1C(=O)NC[C@@H](F)C(C)(C)O [Example 130] | 0.0026 µM | – | 0.231 | –
20 | CC(C)(F)CNc1cc(Nc2ccn3ncc(Cl)c3n2)ncc1C(=O)NC[C@@H](F)C(C)(C)O [Example 264] | 0.0046 µM | – | 0.384 | –
21 | CC(C)Nc1cc(Nc2ccc3ncsc3c2)ncc1C(=O)NC1CCC(=O)CC1 [Example 526, 6-(benzo[d]thiazol-6-ylamino)-4-(isopropylamino)-N-(4-oxocyclohexyl)nicotinamide] | 0.0066 µM | – | – | 0.423
22 | CC(=O)NC12CCC(Nc3cc(Nc4ccc5ncsc5c4)ncc3C(=O)NC[C@@H](F)C(C)(C)O)(CC1)C2 [Example 139] | 0.0031 µM | – | 0.31 | –
23 | CC(C)CNc1cc(Nc2ccn3nccc3c2)ncc1C(=O)NC[C@@H](F)C(C)(C)O [Example 289] | 0.0061 µM | – | 0.502 | –
24 | CC(C)(O)[C@H](F)CNC(=O)c1cnc(Nc2ccc3ncoc3c2)cc1N[C@@H]1CCCC1F (stereo partly shown) [Example 354] | 0.0044 µM | – | 0.402 | –
25 | CC(C)(O)[C@H](F)CNC(=O)c1cnc(Nc2ccc3ncsc3c2)cc1Nc1ccc(OC(F)F)cc1 [Example 51] | 0.0037 µM | – | 0.334 | –
26 | CC(C)Nc1cc(Nc2ccc3ncsc3n2)ncc1C(=O)NCC(F)(F)C(C)(C)O [Example 313] | 0.0034 µM | – | 0.073 | –
27 | CC(C)Nc1cc(Nc2ccc3ncsc3c2)ncc1C(=O)NC1CCN(C(=O)N2CCOCC2)CC1 [Example 218] | 0.007 µM | – | 0.471 | –
28 | CC(C)(O)[C@H](F)CNC(=O)c1cnc(Nc2ccn3nccc3c2)cc1NC1CCC(F)(F)C1 (stereo partly shown) [Example 293] | 0.0018 µM | – | 0.31 | –
29 | CC(C)Nc1cc(Nc2ccc3ncsc3c2)ncc1C(=O)NC1CCCC(CO)C1 (stereo not shown) [Example 173] | 0.0093 µM | 0.696 | – | –
30 | Cc1cc2nc(Nc3cc(NC(C)C)c(C(=O)NC[C@@H](F)C(C)(C)O)cn3)ccn2n1 [Example 379] | 0.0063 µM | – | – | –
31 | CC(C)Nc1cc(Nc2ccc3[nH]c(=O)sc3c2)ncc1C(=O)NC[C@@H](F)C(C)(C)O [Example 40] | – | – | 0.503 | –
32 | Cc1cnc2ccc(Nc3cc(NC4CC4)c(C(=O)NC[C@@H](F)C(C)(C)O)cn3)nn12 [Example 276] | – | – | 0.256 | –

Continued, in another order:

Row | IC50 [2] | SMILES | IC50 [1] [µM] | IC50 ([1]; Homo sapiens, PBMC, 5 h) [µM] | EC50 ([1]; Homo sapiens, PBMC, 5 h) [µM]
33 | 0.0017 µM | CC(C)(O)[C@H](F)CNC(=O)c1cnc(Nc2nc3scnc3cc2F)cc1NC1CCCC1F (stereo partly shown) [Example 462] | 0.115 | – | –
34 | 0.0164 µM | CC(C)(O)[C@H](F)CNC(=O)c1cnc(Nc2ccc3nccnc3n2)cc1NC1CC1 [Example 97] | – | 0.302 | –
35 | 0.0037 µM | CC(C)(O)[C@H](F)CNC(=O)c1cnc(Nc2ccc3ncsc3c2)cc1NC1CCCC1 [Example 33, (R)-6-(benzo[d]thiazol-6-ylamino)-4-(cyclopentylamino)-N-(2-fluoro-3-hydroxy-3-methylbutyl)nicotinamide] | – | 0.064 | –
36 | 0.0031 µM | CC(C)C(O)[C@H](F)CNC(=O)c1cnc(Nc2ccc3ncsc3c2)cc1N[C@@H]1CCC[C@H]1O (stereo partly shown) [Example 332] | 0.791 | – | –
37 | 0.008 µM | CC(C)(O)[C@H](F)CNC(=O)c1cnc(Nc2ccc3nccnc3c2)cc1NC1CC1 [Example 82] | – | 0.366 | –
38 | 0.015 µM | CC(C)(O)C1CC(Nc2cc(Nc3ccc4ncsc4c3)ncc2C(=O)NC[C@@H](F)C(O)(C2CC2)C(F)(F)F)C1 (stereo partly shown) [Example 32] | – | 0.511 | –
39 | 0.0086 µM | Cc1nc2ccc(Nc3cc(NC4CCCC4F)c(C(=O)NC[C@@H](F)C(C)(C)O)cn3)cc2s1 (stereo partly shown) [Example 349] | 0.475 | – | –
40 | 0.0025 µM | CC(C)(O)[C@H](F)CNC(=O)c1cnc(Nc2cc3scnc3cc2F)cc1NC1CCOCC1 [Example 520] | – | 1.06 | –
41 | 0.0016 µM | CC(C)(O)[C@H](F)CNC(=O)c1cnc(Nc2ccc3ncccc3n2)cc1NC1CCOCC1 [Example 430] | – | 0.102 | –
42 | 0.0015 µM | CC(C)(F)CNc1cc(Nc2ccc3ncsc3c2)ncc1C(=O)NC[C@@H](F)C(C)(C)O [Example 126] | – | 0.102 | –
43 | 0.0047 µM | CC(C)(F)CNc1cc(Nc2cc3scnc3cn2)ncc1C(=O)NC[C@@H](F)C(C)(C)O [Example 316] | – | 0.429 | –
44 | 0.0068 µM | O=C(NCCN1CCOCC1)c1cnc(Nc2ccc3ncsc3c2)cc1NC1CCCC1 [Example 154] | – | 0.535 | –
45 | 0.0189 µM | CC(C)(O)[C@H](F)CNC(=O)c1cnc(Nc2ccc3nc(N)ccc3c2)cc1NC1CC1 [Example 75] | – | 0.71 | –
46 | 0.021 µM | CCC(O)(CC)[C@H](F)CNC(=O)c1cnc(Nc2cc3scnc3cn2)cc1NC1CC1 [Example 403] | – | 1.48 | –
47 | 0.0018 µM | CC(C)(O)[C@H](F)CNC(=O)c1cnc(Nc2ccc3ncsc3c2)cc1Nc1ncc(CO)s1 [Example 416] | – | 0.255 | –
48 | 0.0092 µM | CC(O)[C@H](F)CNC(=O)c1cnc(Nc2ccc3ncsc3c2)cc1NC1CCCC1 (stereo partly shown) [Example 29] | 0.128 | – | –
49 | 0.0098 µM | CC(C)(O)[C@H](F)CNC(=O)c1cnc(Nc2ccc3ncsc3c2)cc1NCc1ccc(Cl)cc1 [Example 167] | – | 0.526 | –
50 | 0.0106 µM | CC(C)(O)[C@H](F)CNC(=O)c1cnc(Nc2ncc3ncccc3n2)cc1N[C@@H]1CCC[C@@H]1F [Example 446] | – | 0.094 | –
51 | 0.005 µM | CC(F)CNc1cc(Nc2ccc3ncsc3c2)ncc1C(=O)NC[C@@H](F)C(C)(C)O (stereo partly shown) [Example 451] | 0.258 | – | –
52 | 0.0109 µM | CC(C)(O)[C@H](F)CNC(=O)c1cnc(Nc2ccc3ncsc3n2)cc1NC1CCOCC1F (stereo partly shown) [Example 417] | 0.072 | – | –
53 | 0.016 µM | CC(C)(O)[C@H](F)CNC(=O)c1cnc(Nc2ccc3ncsc3c2)cc1NCC1CCCO1 (stereo partly shown) [Example 93] | – | 0.619 | –
54 | 0.002 µM | CC(C)(O)[C@H](F)CNC(=O)c1cnc(Nc2ccc3ncsc3c2)cc1NC12CCC(O)(CC1)C2 [Example 133] | – | 0.23 | –
55 | 0.0044 µM and 0.0032 µM | CC1COCCC1Nc1cc(Nc2ccc3ncsc3c2)ncc1C(=O)NC[C@@H](F)C(C)(C)O (stereo partly shown) [Example 234] | – | – | –
